pEC50: −log10 of the molar value. Entries after “also recorded” stand apart in the source; their conditions may differ.
How the values were obtained:
[1] = tested on: mechanical allodynia in spinal L5/L6 nerve–ligated neuropathic rats; experiment: Mechanical allodynia (von Frey paw withdrawal threshold) after intrathecal injection in spinal nerve-ligated neuropathic rats; format: in vivo, rat; details: for Blockade of aconitine (100 ng) anti-allodynia / Blockade of benzolyaconine (10 μg) anti-allodynia: intrathecal pretreatment: antiserum 1:10 or nor-BNI 100 μg 0.5 h earlier, minocycline 100 μg 4 h earlier; for Own effect on withdrawal responses in contralateral or ipsilateral paws: compared with saline control
Protocol: (§1) An 18-cm polyethylene catheter (PE-10: 0.28-mm inner diameter and 0.61-mm outer diameter, Clay Adams, Parsippany, NJ, USA) with a volume of 13 μL was inserted into the lumbar level of the spinal cord as described elsewhere under inhalational isoflurane anesthesia (4% for induction and 1% for maintenance) run by an anesthesia meter (Ugo Basile Gas Anesthesia System, Comerio, Italy). Two days after recovery from anesthesia, the placement of the catheter in the spinal cord was verified by administration of 4% lidocaine (10 μL, followed by 15 μL of saline for flushing). Rats that had no motor impairment after placement of the intrathecal catheter were considered for the study, and rats that developed immediate bilateral paralysis of the hindlimbs after intrathecal administration of lidocaine were selected for the study. For intrathecal administration of the control and test articles, 10 μL of each drug was injected with a 50-μL microinjector (Shanghai Anting Micro-Injector Factory, Shanghai, China) and was flushed with 15 μL of normal saline solution.
(§2) To induce hypersensitivity to neuropathic pain, the rats were subjected to spinal nerve ligation as previously described [Kim and Chung (1992)] and [Zhang et al. (2013)]. Unilateral ligation of the L5 and L6 spinal nerves was performed under inhalational isoflurane anesthesia (4% for induction and 1% for maintenance) run by an anesthesia meter (Ugo Basile Gas Anesthesia System). The left L5 and L6 spinal nerves were isolated and tightly ligated with 6-0 silk thread. After ligation, the wound was sutured and the rats were returned to their home cages for recovery. After spinal nerve ligation, only those rats with marked unilateral allodynia to mechanical stimulation (i.e., a hindpaw withdrawal threshold of less than 8 g on the operated side) and with no major impairment were included in the study. Drug testing started 2–4 weeks after spinal nerve ligation.
To evaluate mechanical allodynia, the animals were acclimatized for at least 30 min to the test environment, namely, a plexiglass box on a metal grid (0.5 cm × 0.5 cm). The hindpaw withdrawal threshold was measured with a 2450 CE Electronic von Frey hair (IITC Life Science Inc, Woodland Hill, CA, USA). An electronic handheld transducer with a No. 15 monofilament was applied perpendicularly to the medial surface of the hindpaws with increasing force (ranging from 0.1 to 90 g) until the rat suddenly withdrew or licked the hindpaw. The lowest force that produced a withdrawal response was considered to be the threshold, which was the mean of three repeated measurements made in a 5-min interval.
(§3) The percentage of maximal possible effect (% MPE) was calculated using the following formula: (postdrug threshold in ipsilateral hindlimb – baseline threshold in ipsilateral hindlimb)/(baseline threshold in contralateral hindlimb – baseline threshold in ipsilateral hindlimb) × 100 ([Bowersox et al., 1996]). A % MPE value near 100 indicates normal mechanical thresholds (i.e., near contralateral thresholds), and a value near 0 indicates allodynia. For the dose-response curve analysis, the parameters (i.e., minimum effect; Emax, median effective concentration or dose, or median toxic or lethal dose [EC50, ED50, TD50, or LD50], and Hill coefficient [n]) were calculated from the individual dose-response curves using the Prism program (version 5.01, GraphPad Software, San Diego, CA, USA). To determine the parameters of the dose-response curves, the values of response (Y) were fitted by non-linear least-squares curves to the relation Y = a + bx, where x = [D]^n/(ED50^n + [D]^n), [C]^n/(EC50^n + [C]^n), [D]^n/(TD50^n + [D]^n) or [D]^n/(LD50^n + [D]^n), to give each value of ED50, EC50, TD50, or LD50 and b (Emax) yielding a minimum residual sum of squares of deviations from the theoretical curve ([Wang and Pang, 1993]).

[2] = tested on: dynorphin A expression in spinal microglia; details: 2016, cited from earlier work; for Effect on dynorphin A level / expression: spinal cord and cultured primary spinal microglia
[3] = tested on: heat hyperalgesia in spinal L5/L6 nerve–ligated neuropathic rats; experiment: Heat hyperalgesia (radiant heat paw withdrawal latency) after intrathecal injection in spinal nerve-ligated neuropathic rats; format: in vivo, rat
Protocol: as §1, §2
To assess heat hyperalgesia, the rats were put in a plexiglass box on an elevated glass surface. After an adaptation period of at least 30 min, radiant heat was applied to the plantar medial surface of each hindpaw. The hindpaw withdrawal latency was measured with a Model 390G Plantar Test Analgesia Meter (IITC Life Science Inc.). To prevent tissue damage, the latency cutoff was set at 30 s. The paw withdrawal latency was defined as the time from the onset of radiant heat application to the withdrawal of the hindpaw. Both hindpaws were tested independently three times with a 5-min interval between trials. The result for each test was calculated as the mean of the three repeated measurements.
as §3, with “To determine the parameters of the dose-response curves, the values of response (Y) were fitted by non-linear least-squares curves to the relation Y = a + bx, where x = [D]^n/(ED50^n + [D]^n), [C]^n/(EC50^n + [C]^n), [D]^n/(TD50^n + [D]^n) or [D]^n/(LD50^n + [D]^n), to give each value of ED50, EC50, TD50, or LD50 and b (Emax) yielding a minimum residual sum of squares of deviations from the theoretical curve ([Wang and Pang, 1993]).” left out

[4] = tested on: pain hypersensitivity in spinal nerve-ligated neuropathic rats; experiment: Anti-hypersensitivity, normalized (anti-allodynia and anti-hyperalgesia ED50 averaged); format: in vivo, rat
Protocol: as §3
Table 1 summarizes the ED50 values in mole base for aconitine, benzolyaconine, and aconine to block pain hypersensitivity. Because anti-allodynia and anti-hyperalgesia were closely correlated, their ED50 values were averaged to obtain a normalized ED50 for anti-hypersensitivity. The ED50 ratios for aconitine and benzolyaconine to block mechanical allodynia and heat hyperalgesia were 1:92 and 1:110, with a normalized ED50 ratio of 1:102.

[5] = tested on: prodynorphin gene expression in primary cultures of spinal microglia; experiment: Prodynorphin gene expression in cultured primary spinal microglia (real-time quantitative PCR); format: cell-based, rat
Protocol: Glial cells were isolated from the 1-day-old neonatal rats. The isolated spinal cords were minced and then incubated with trypsin. Dissociated cells were suspended in 75-cm^2 tissue culture flasks (1 × 10^7 cells/flask) precoated with poly-L-lysine and maintained in a 5% CO2 incubator at 37°C. After culture for 10 days, the microglial cells were prepared as floating cell suspensions by shaking the flask at 260 rpm for 2 h. The aliquots were transferred to plates, and the unattached cells were removed by washing with serum-free Dulbecco’s modified Eagle’s medium.
RNA extraction, reverse transcription, and real-time quantitative PCR were performed as previously described ([Chen et al., 2012]). The spinal lumbar enlargements of rats were collected and mechanically homogenized with an electronic microhomogenizer at 4,000 rpm for 10 s in TRIzol on ice. Total RNA from the spinal lumbar enlargements were isolated using TRIzol reagent (Invitrogen, Grand Island, NY, USA). A 1-μg sample of total RNA was reverse-transcribed with a ReverTra Ace qPCR RT-Kit (Toyobo, Japan). Real-time quantitative PCR was carried out with the Mastercycler ep realplex (Eppendorf, Germany) using the RealmasterMix (SYBR Green I) (Toyobo). The fold change was calculated with the 2^-ΔΔCt method after normalization to the gene of gapdh. […]
The percentage of maximal possible effect (% MPE) was calculated using the following formula: (postdrug threshold in ipsilateral hindlimb – baseline threshold in ipsilateral hindlimb)/(baseline threshold in contralateral hindlimb – baseline threshold in ipsilateral hindlimb) × 100 ([Bowersox et al., 1996]). […] For the dose-response curve analysis, the parameters (i.e., minimum effect; Emax, median effective concentration or dose, or median toxic or lethal dose [EC50, ED50, TD50, or LD50], and Hill coefficient [n]) were calculated from the individual dose-response curves using the Prism program (version 5.01, GraphPad Software, San Diego, CA, USA). […]
Primary cultures of microglial cells taken from the spinal cords of the neonatal rats were treated with a variety of concentrations of aconitine (1 × 10^-8, 3 × 10^-8, 1 × 10^-7, 3 × 10^-7, and 1 × 10^-6 M), benzolyaconine (3 × 10^-7, 1 × 10^-6, 3 × 10^-6, 1 × 10^-5, 3 × 10^-5, and 1 × 10^-4 M) and aconine (1 × 10^-4, 3 × 10^-4, 1 × 10^-3, 3 × 10^-3, and 1 × 10^-2 M) for 2 h. As the bulleyaconitine A-increased dynorphin A level measured by the enzyme-linked immunosorbent assay was in parallel with the prodynorphin gene expression in spinal microglia from neonatal and adult rats ([Li et al., 2016]), the expression of the cellular prodynorphin gene encoding dynorphin A was only measured in this study using real-time quantitative PCR. […]

[6] = tested on: spinal nerve–ligated neuropathic rats; experiment: Acute spinal neurotoxicity (flaccid paralysis and death) after intrathecal injection; format: in vivo, rat; details: for LD50 (mortality) / TD50 (for flaccid paralysis): intrathecal bolus, observed 24 h; for Normalized TD50: average of TD50 (paralysis) and LD50
Protocol: as §1
Survival and abnormal motor-blockade behaviors, including asthma, abdominal breathing, locomotion difficulty, and paralysis, were continuously monitored for 24 h after the treatment, with special attention given during the first 4 h. Paralysis was defined as an inability to negotiate a 60-degree inclined plane ([Durant and Yaksh, 1986]). Death was defined as respiratory arrest over a period of 5 min. The paralysis and mortality rates and their latencies were quantitatively recorded and tabulated.
as §3

mice = details: intravenous injection in mice; ref Mizugaki and Ito, 2005; cited from earlier work
neuropathic rats = tested on: neuropathic rats; set-up: method as in Li et al., 2016; details: ref Li et al., 2016; cited from earlier work
[7] = tested on: mechanical allodynia in spinal L5/L6 nerve–ligated neuropathic rats; set-up: method as in Li et al., 2016; details: ref Li et al., 2016; cited from earlier work
[8] = tested on: heat hyperalgesia in spinal L5/L6 nerve–ligated neuropathic rats; set-up: method as in Li et al., 2016; details: ref Li et al., 2016; cited from earlier work

## Oc1ccc2c3c1O[C@H]1c4[nH]c5c(c4C[C@@]4(O)[C@@H](C2)N(CC2CC2)CC[C@]314)C[C@@]1(O)[C@H]2Cc3ccc(O)c4c3[C@@]1(CCN2CC1CC1)[C@H]5O4 [nor-BNI, Nor-binaltorphimine, reference compound]
[1]
  Blockade of aconitine (100 ng) anti-allodynia: completely blocked aconitine-induced anti-allodynia
  Blockade of benzolyaconine (10 μg) anti-allodynia: completely alleviated benzolyaconine anti-allodynia
[1]; intrathecal
  Own effect on withdrawal responses in contralateral or ipsilateral paws: did not affect the withdrawal responses

## CCN(CC)CC(=O)Nc1c(C)cccc1C [lidocaine]
[2]; ref Li et al.
  Effect on dynorphin A level / expression: did not stimulate dynorphin A expression

## CCCCN1CCCCC1C(=O)Nc1c(C)cccc1C (stereo not drawn) [bupivacaine]
[2]; ref Li et al.
  Effect on dynorphin A level / expression: did not stimulate dynorphin A expression

## CCN1CC2(COC)C(O)CC(OC)C34C5CC6(O)C(OC)C(O)C(O)(C5C6OC(=O)c5ccccc5)C(C(OC)C23)C14 (stereo not drawn) [Benzolyaconine, benzoylaconine]
[1]; intrathecal 10 μg
  Anti-allodynic effect in ipsilateral paws: marked and reversible anti-allodynia
[1]; intrathecal, 1 h after injection
  Emax, blockade of mechanical allodynia: 56.4 % MPE
[1]; intrathecal, % MPE at 1 h after injection
  ED50, anti-allodynia: 3.6 nmol
[1]; intrathecal, mechanical and thermal stimuli
  Effect on withdrawal responses in the contralateral paws: did not significantly affect the paw withdrawal responses in the contralateral paws
[3]; 1 h after injection
  Emax, blockade of thermal hyperalgesia: 100 % MPE
[3]; % MPE at 1 h after injection
  ED50, anti-hyperalgesia: 3.5 nmol
[4]; intrathecal, average of allodynia and hyperalgesia ED50
  Normalized ED50 for anti-hypersensitivity: 3.6 nmol
[4]; times greater than aconitine
  Normalized ED50 relative to that of aconitine: 102 times
[5]; Rattus norvegicus, primary spinal microglia of neonatal rats, 2 h incubation, read-out: EC50, stimulation of prodynorphin gene (dynorphin A) expression
  pEC50: 5.52
[6]; intrathecal
  Duration of toxic motor-blockade behavior: 5 to 10 min
  Latency of toxic motor-blockade behavior: 2 to 3 min
  Normalized TD50: 0.2 µmol
[6]
  LD50 (mortality): 0.2 µmol
  TD50 (for flaccid paralysis): 0.2 µmol
mice
  LD50: 23 mg/kg

## C=C1C2CCC3(C4C[C@H]5C6(CCC[C@@]5(C)CN(CC)C46)[C@H]3[C@H]2O)[C@@H]1O [Bullatine A]
[2]; microglia in the spinal cord and cultured primary microglia, ref Huang et al.
  Effect on dynorphin A expression: specifically stimulated dynorphin A expression

## CN(C)c1ccc(O)c2c1C[C@H]1C[C@H]3[C@H](N(C)C)C(O)=C(C(N)=O)C(=O)[C@@]3(O)C(O)=C1C2=O [minocycline, reference compound]
[1]
  Blockade of aconitine (100 ng) anti-allodynia: completely prevented
  Blockade of benzolyaconine (10 μg) anti-allodynia: completely alleviated benzolyaconine anti-allodynia
[1]; intrathecal
  Own effect on withdrawal responses in contralateral or ipsilateral paws: did not affect withdrawal thresholds
Neuropathic rats
  Effect on antinociceptive effects of bulleyaconitine A: completely abolished the antinociceptive effects of bulleyaconitine A

## CCN1C[C@]2(COC)[C@H](O)C[C@H](OC)[C@]34C1[C@H]([C@H](OC)[C@H]23)[C@]1(O)[C@H]2[C@@H](O)[C@](O)(C[C@H]24)[C@@H](OC)[C@@H]1O [Aconine, aconine]
[1]; intrathecal, up to 300 μg
  Effect on mechanical allodynia in ipsilateral paws: did not produce significant anti-allodynia or anti-hyperalgesia; also recorded: did not alter mechanical allodynia or thermal hyperalgesia
[3]; up to 300 μg
  Effect on heat hyperalgesia in ipsilateral paws: did not produce significant anti-allodynia or anti-hyperalgesia; also recorded: did not alter mechanical allodynia or thermal hyperalgesia
[5]; up to 10 mM, 2 h
  Effect on prodynorphin gene (dynorphin A) expression: did not significantly affect prodynorphin gene expression; also recorded: did not significantly stimulate the dynorphin A expression
[6]
  LD50 (mortality): 1.7 µmol
  TD50 (for flaccid paralysis): 1.5 µmol
[6]; intrathecal
  Normalized TD50: 1.6 µmol
mice
  LD50: 120 mg/kg

## bulleyaconitine A
[7]
  ED50, block of mechanical allodynia: 180 pmol
[8]
  ED50, block of heat hyperalgesia: 201 pmol
[2]; ref Li et al., read-out: EC50, stimulation of microglial dynorphin A expression
  pEC50: 7.35
[2]; ref Li et al.
  Effect on dynorphin A level / expression: significantly increased the dynorphin A level

— PMC5051147, “Ester Hydrolysis Differentially Reduces Aconitine-Induced Anti-hypersensitivity and Acute Neurotoxicity: Involvement of Spinal Microglial Dynorphin Expression and Implications for Aconitum Processing” (Frontiers in Pharmacology, 2016)
